Measured values as given in paper PMC9025810, “Interaction of Antifungal Drugs with CYP3A- and OATP1B-Mediated Venetoclax Elimination” (Pharmaceutics, 2022).
Read-outs that look alike come from different tables or passages of the source.

Columns and labels:
human CYP3A4 = target: T1, human CYP3A4 (Homo sapiens, UniProt P08684); assay: Venetoclax metabolism by human recombinant CYP3A4 supersomes; format: in vitro ADME; settings: 10 µM venetoclax, 40 nM CYP3A4 supersomes, 2 h
T1 construct: purchased Corning 456207
Description: The ability of human CYP3A4 to metabolize venetoclax was assessed using human CYP3A4 supersomes using standard procedures. Reactions were performed in a volume of 100 µL. […] The mixture was preincubated for 5 min at 37 °C before initiating the reaction by the addition of the NADPH regenerating system and incubating at 37 °C with continuous shaking (400 rpm). At 0 h and 2 h, a 20 µL aliquot was mixed with 20 µL methanol to terminate the reaction. The mixture was then vortexed and stored at −80 °C until analysis. Venetoclax was quantified using a validated UHPLC-MS/MS analytical method.

[1] = Venetoclax plasma pharmacokinetics in wild-type, CYP3A(−/−) and OATP1B2(−/−) mice; format: in vivo; settings: for AUC(0-t) / Cmax: mouse, plasma, po, mean (SE)
Description: In vivo experiments were performed with female and male mice from inbred wild-type strains (FVB, DBA) or with age- and sex-matched genetically-engineered mice with a deficiency of the Cyp3a locus (8-genes; […] The studies were conducted in accordance with the NIH's Guide for the Care and Use of Laboratory Animals and as approved by the University Laboratory Animal Resources Animal Care and Use Committee at Ohio State University (2015A00000101-R2; last approved 20 September 2021) and. Mice were housed in a temperature- and light-controlled environment with free access to water and a standard diet, excluding a 3-h fast before venetoclax administration. For in vivo studies, venetoclax was prepared for oral administration by dissolving the powder in DMSO (5%) and then adding PEG300 (50%), Tween-80 (5%), and water (40%) stepwise to create a suspension with a final concentration of 2 mg/mL. […] Based on our previous experience, all experiments were prospectively designed to have group sizes of five; however, pharmacokinetic data from two CYP3A(-/-) mice were excluded due to tolerability concerns, resulting in a final group size of three (Supplementary Table S1). Pharmacokinetic studies were performed as described previously. In brief, approximately 30 μL of whole blood was collected from each mouse at six time points between 5 min and 8 h after venetoclax administration; in most cases, samples were collected at 5 min, 15 min, 30 min, 1 h, 3 h, and 8 h. The first three samples were collected from a submandibular vein using a sterile 5-mm Goldenrod Animal Lancet and a heparinized capillary tube. The fourth and fifth samples were collected from the retro-orbital venous plexus using capillary tubes after anesthetizing the mice using 2% isoflurane. The terminal sample was collected into a 1.3-mL tube containing heparin by cardiac puncture using a syringe and needle. Whole blood samples were centrifuged at 13,000× g for 5 min. The plasma supernatant was then collected, immediately placed on dry ice, and stored at -80 °C until analysis. Venetoclax was quantified using a validated UHPLC-MS/MS analytical method; this method utilizes 5-μL sample volumes and has a lower limit of quantification of 5 ng/mL. Non-compartmental analysis was performed to determine the pharmacokinetic parameters of venetoclax using Phoenix WinNonlin version 8.0 (Certara, Princeton, NJ, USA). Peak plasma concentration (Cmax) was determined by visual inspection of the data from the log concentration versus time curves. The linear trapezoidal rule was used to obtain the area under the plasma concentration-time curve from time zero to the time of the last measurable concentration (AUC0-last).

[2] = plasma; cited from earlier work
[3] = cited from earlier work

T1 sequence (P08684 whole entry): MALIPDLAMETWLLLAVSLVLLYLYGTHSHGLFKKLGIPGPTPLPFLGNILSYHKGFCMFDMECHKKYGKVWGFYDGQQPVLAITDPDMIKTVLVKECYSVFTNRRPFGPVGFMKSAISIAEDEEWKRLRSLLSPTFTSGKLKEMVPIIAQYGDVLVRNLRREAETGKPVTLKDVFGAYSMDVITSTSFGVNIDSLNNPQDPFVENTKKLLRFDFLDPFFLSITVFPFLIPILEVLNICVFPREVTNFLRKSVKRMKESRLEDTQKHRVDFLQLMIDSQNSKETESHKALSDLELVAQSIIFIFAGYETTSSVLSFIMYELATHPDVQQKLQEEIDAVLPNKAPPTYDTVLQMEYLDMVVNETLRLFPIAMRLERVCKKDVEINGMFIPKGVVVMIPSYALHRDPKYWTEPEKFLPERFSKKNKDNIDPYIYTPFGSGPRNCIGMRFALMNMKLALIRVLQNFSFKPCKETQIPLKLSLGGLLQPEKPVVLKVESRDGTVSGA

CC1(C)CCC(CN2CCN(c3ccc(C(=O)NS(=O)(=O)c4ccc(NCC5CCOCC5)c([N+](=O)[O-])c4)c(Oc4cnc5[nH]ccc5c4)c3)CC2)=C(c2ccc(Cl)cc2)C1 [Venetoclax]
Amount of venetoclax in the reaction in the presence of ketoconazole (human CYP3A4; 10 µM ketoconazole): nearly unchanged
Reduction of the amount of venetoclax in the reaction (human CYP3A4; vehicle (DMSO)): 40%
Venetoclax AUC Fold Increase ([1]; CYP3A(−/−) + ketoconazole 50 mg/kg versus vehicle-treated CYP3A(−/−)): 1.6 (versus vehicle-treated wild-type CYP3A(−/−)) fold
Venetoclax AUC Fold Increase ([1]; CYP3A(−/−) + ketoconazole 50 mg/kg versus vehicle-treated CYP3A(−/−), listed as venetoclax): 1.6 fold
Venetoclax AUC Fold Increase ([1]; female OATP1B2(−/−) versus wild-type DBA): 2.0 (versus wild-type DBA) fold
Venetoclax AUC Fold Increase ([1]; female OATP1B2(−/−) versus wild-type DBA, listed as venetoclax): 2 fold
AUC(0-t) ([1]; female, CYP3A(−/−) knockout (FVB.129P2 background), 10 mg/kg, CYP3A(−/−), female, venetoclax 10 mg/kg PO, co-treatment None (control of micafungin experiment), read-out: Venetoclax AUC(0–8h)): 10600 ng·h/mL
AUC(0-t) ([1]; female, DBA, 10 mg/kg, wild-type DBA, female, n=10, venetoclax 10 mg/kg PO, no co-treatment, read-out: Venetoclax AUC(0–8h)): 3210 ng·h/mL
Cmax ([1]; female, DBA, 10 mg/kg, wild-type DBA, n=10, venetoclax 10 mg/kg PO, no co-treatment): 523 ng/mL
Cmax ([1]; female, FVB, 10 mg/kg, Table S1: wild-type FVB, female, N=5, venetoclax 10 mg/kg PO, no co-treatment): 1540 ng/mL
AUC(0-t) ([1]; female, FVB, 10 mg/kg, Table S1: wild-type FVB, female, N=5, venetoclax 10 mg/kg PO, no co-treatment, read-out: Venetoclax AUC(0-last)): 7430 ng·h/mL
Cmax ([1]; female, FVB, 10 mg/kg, wild-type FVB, female, venetoclax 10 mg/kg PO 30 min after ketoconazole 50 mg/kg PO): 3080 ng/mL
AUC(0-t) ([1]; female, FVB, 10 mg/kg, wild-type FVB, female, venetoclax 10 mg/kg PO 30 min after ketoconazole 50 mg/kg PO, read-out: Venetoclax AUC(0–8h)): 19700 ng·h/mL
AUC(0-t) ([1]; female, FVB, 10 mg/kg, wild-type FVB, female, venetoclax 10 mg/kg PO, co-treatment PEG400 (vehicle), read-out: Venetoclax AUC(0–8h)): 6530 ng·h/mL
Cmax ([1]; female, FVB, 10 mg/kg, wild-type FVB, venetoclax 10 mg/kg PO, co-treatment PEG400 (vehicle)): 1030 ng/mL
Cmax ([1]; female, FVB.129P2 CYP3A(-/-), 10 mg/kg, Table S1: CYP3A(-/-), female, N=3, venetoclax 10 mg/kg PO, no co-treatment): 3400 ng/mL
AUC(0-t) ([1]; female, FVB.129P2 CYP3A(-/-), 10 mg/kg, Table S1: CYP3A(-/-), female, N=3, venetoclax 10 mg/kg PO, no co-treatment, read-out: Venetoclax AUC(0-last)): 13700 ng·h/mL
Cmax ([1]; female, FVB.129P2 CYP3A(−/−), 10 mg/kg, CYP3A(−/−), female, venetoclax 10 mg/kg PO 30 min after ketoconazole 50 mg/kg PO): 2700 ng/mL
AUC(0-t) ([1]; female, FVB.129P2 CYP3A(−/−), 10 mg/kg, CYP3A(−/−), female, venetoclax 10 mg/kg PO 30 min after ketoconazole 50 mg/kg PO, read-out: Venetoclax AUC(0–8h)): 17300 ng·h/mL
AUC(0-t) ([1]; female, FVB.129P2 CYP3A(−/−), 10 mg/kg, CYP3A(−/−), female, venetoclax 10 mg/kg PO, co-treatment PEG 400 (vehicle), read-out: Venetoclax AUC(0–8h)): 10600 ng·h/mL
Cmax ([1]; female, FVB.129P2 CYP3A(−/−), 10 mg/kg, CYP3A(−/−), venetoclax 10 mg/kg PO, co-treatment None (control of micafungin experiment)): 1830 ng/mL
Cmax ([1]; female, FVB.129P2 CYP3A(−/−), 10 mg/kg, CYP3A(−/−), venetoclax 10 mg/kg PO, co-treatment PEG 400 (vehicle)): 1570 ng/mL
Cmax ([1]; female, FVB.129P2 CYP3A(−/−), CYP3A(−/−), female, venetoclax 10 mg/kg PO 30 min after micafungin 100 mg/kg IV): 2280 ng/mL
AUC(0-t) ([1]; female, FVB.129P2 CYP3A(−/−), CYP3A(−/−), female, venetoclax 10 mg/kg PO 30 min after micafungin 100 mg/kg IV, read-out: Venetoclax AUC(0–8h)): 13600 ng·h/mL
AUC(0-t) ([1]; female, OATP1B2(−/−), 10 mg/kg, OATP1B2(−/−), female, n=10, venetoclax 10 mg/kg PO, no co-treatment, read-out: Venetoclax AUC(0–8h)): 6480 ng·h/mL
Cmax ([1]; female, OATP1B2(−/−), 10 mg/kg, n=10, venetoclax 10 mg/kg PO, no co-treatment): 1070 ng/mL
Venetoclax AUC Fold Increase ([1]; male OATP1B2(-/-) versus male wild-type DBA (Figure S3, Table S1)): 1.7 fold
Cmax ([1]; male, DBA, 10 mg/kg, Table S1: wild-type DBA, male, venetoclax 10 mg/kg PO, no co-treatment): 958 ng/mL
AUC(0-t) ([1]; male, DBA, 10 mg/kg, Table S1: wild-type DBA, male, venetoclax 10 mg/kg PO, no co-treatment, read-out: Venetoclax AUC(0-last)): 5270 ng·h/mL
Cmax ([1]; male, OATP1B2(-/-), 10 mg/kg, Table S1: OATP1B2(-/-), male, venetoclax 10 mg/kg PO, no co-treatment): 1610 ng/mL
AUC(0-t) ([1]; male, OATP1B2(-/-), 10 mg/kg, Table S1: OATP1B2(-/-), male, venetoclax 10 mg/kg PO, no co-treatment, read-out: Venetoclax AUC(0-last)): 9200 ng·h/mL
Venetoclax AUC Fold Increase ([1]; untreated CYP3A(-/-) versus untreated wild-type FVB, female (Figure S2, Table S1)): 1.8 fold
Venetoclax AUC Fold Increase ([1]; vehicle-treated CYP3A(−/−) versus vehicle-treated wild-type FVB): 1.6 (versus vehicle-treated wild-type FVB) fold
Venetoclax AUC Fold Increase ([1]; vehicle-treated CYP3A(−/−) versus vehicle-treated wild-type FVB, listed as venetoclax): 1.6 fold
Venetoclax AUC Fold Increase ([1]; wild-type FVB + ketoconazole 50 mg/kg versus vehicle-treated wild-type FVB): 3.0 (versus vehicle-treated wild-type FVB) fold
Venetoclax AUC Fold Increase ([1]; wild-type FVB + ketoconazole 50 mg/kg versus vehicle-treated wild-type FVB, listed as venetoclax): 3 fold
Protein-bound in plasma [2]: > 99%
Reduction of clearance in vivo ([3]; mice with a deficiency of all OATP1A and OATP1B type transporters): 60%
DDI between venetoclax and ketoconazole (increase in venetoclax exposure) ([3]; mice): ~ 3 fold
